This passage reports Kd results from article PMC5793714, “Functional implications of corticosteroid-binding globulin N-glycosylation” (Journal of Molecular Endocrinology, 2017).

One test addresses T1, rat CBG (Rattus norvegicus, UniProt P31211).
T1 construct: gene Serpina6; full-length cDNA in pcDNA3, secreted mature N-glycosylated protein from stably transfected CHO-S cells (also Lec1 and Lec2 lines), FPLC semi-purified or concentrated medium; no tag told
T1 sequence (P31211 23-396): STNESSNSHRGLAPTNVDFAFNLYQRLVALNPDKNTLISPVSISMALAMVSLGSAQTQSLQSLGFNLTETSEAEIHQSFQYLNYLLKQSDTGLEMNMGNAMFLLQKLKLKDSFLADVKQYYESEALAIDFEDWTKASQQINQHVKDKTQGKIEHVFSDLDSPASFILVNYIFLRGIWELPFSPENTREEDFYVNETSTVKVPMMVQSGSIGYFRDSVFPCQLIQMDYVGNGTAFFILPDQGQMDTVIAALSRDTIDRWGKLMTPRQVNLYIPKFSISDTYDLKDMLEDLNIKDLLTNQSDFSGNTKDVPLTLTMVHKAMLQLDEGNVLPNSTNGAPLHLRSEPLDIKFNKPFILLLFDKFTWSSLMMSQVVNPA
Nature of the test: saturation binding, dextran-coated charcoal, Scatchard.

The target in test [1] is T2, human CBG (corticosteroid-binding globulin, SERPINA6) (Homo sapiens, UniProt P08185).
T2 construct: full-length cDNA in pRc/CMV, secreted mature N-glycosylated protein from stably transfected CHO-S cells (also Lec1 and Lec2 lines), semi-purified by HiTrap QFF FPLC or concentrated medium; no tag told
T2 sequence (P08185 23-405): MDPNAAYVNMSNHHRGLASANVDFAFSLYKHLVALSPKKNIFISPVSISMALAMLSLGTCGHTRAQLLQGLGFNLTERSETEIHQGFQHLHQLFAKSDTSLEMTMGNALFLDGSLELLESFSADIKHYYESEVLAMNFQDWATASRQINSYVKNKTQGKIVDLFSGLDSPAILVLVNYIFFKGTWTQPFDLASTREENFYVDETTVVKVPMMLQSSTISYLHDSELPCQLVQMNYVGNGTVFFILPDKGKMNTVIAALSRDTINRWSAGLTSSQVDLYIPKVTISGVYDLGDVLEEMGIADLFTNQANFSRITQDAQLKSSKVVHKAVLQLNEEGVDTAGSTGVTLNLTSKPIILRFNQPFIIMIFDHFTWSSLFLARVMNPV
The description is as above.

Turning to `C[C@]12C[C@H](O)[C@H]3[C@@H](CCC4=CC(=O)CC[C@@]43C)[C@@H]1CC[C@@H]2C(=O)CO` [corticosterone], the Kd at rat CBG was determined as 2.1 nM. In other words, the single-digit nanomolar range.

As for `C[C@]12CCC(=O)C=C1CC[C@@H]1[C@@H]2[C@@H](O)C[C@@]2(C)[C@H]1CC[C@]2(O)C(=O)CO` [cortisol], binding in test [1] was put at a Kd of 1.1 nM.
